Source: patent US9833497B2, “Human originated EGF domain proteins and use of the same” (CHENGDU SOURCEBIO LIMITED-LIABILITY COMPANY, priority 2013, dated 2017)

Key:
Format in all cases: cell-based
E. coli DH5α = test: Antibacterial activity: MIC and growth curve against E. coli DH5α in 96-well plate; details: minimal inhibitory concentration against E. coli DH5α; 96-well plate, 5×10^5 CFU/mL, 37° C., judged after 8 h
Method in brief: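 Log-phase bacteria (OD600 ~0.5) resuspended in LB at 5×10^5 CFU/mL, exposed to recombinant protein at 50, 25, 12.5 μg/mL final in triplicate, 37 °C shaking at 175 rpm. OD600 read every 30 min; MIC is lowest concentration showing no growth.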

E. coli BL21 = test: MIC against Gram-negative bacteria: E. coli BL21; details: for MIC: 10 h cultivation at 37° C.; for MIC against E. coli BL21 / MIC (μg/mL) E. coli BL21: 96-well plate, 37° C., 10 h
Method in brief: (§1)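 MIC, the lowest recombinant protein concentration giving no bacterial growth, found by two-fold serial dilution of human EGF-domain proteins in triplicate. Inoculum 5×10^5 CFU/mL in LB from cultures at McFarland 0.5; plates incubated at 37° C, 175 rpm shaking.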

Pseudomonas aeruginosa = test: MIC against Gram-negative bacteria: Pseudomonas aeruginosa; details: for MIC: P. aeruginosa, 10 h cultivation at 37° C.; for MIC against P. aeruginosa / MIC (μg/mL) P. aeruginosa: 96-well plate, 37° C., 10 h
Method in brief: as §1

Klebsiella pneumonia = test: MIC against Gram-negative bacteria: Klebsiella pneumonia; details: for MIC: K. pneumonia, 10 h cultivation at 37° C.; for MIC against K. pneumonia / MIC (μg/mL) K. pneumonia: 96-well plate, 37° C., 10 h
Method in brief: as §1

Enterobacter cloacae = test: MIC against Gram-negative bacteria: Enterobacter cloacae; details: for MIC: E. cloacae, 10 h cultivation at 37° C.; for MIC against E. cloacae / MIC (μg/mL) E. cloacae: 96-well plate, 37° C., 10 h
Method in brief: as §1

Aeromonas hydrophila = test: MIC against Gram-negative bacteria: Aeromonas hydrophila; details: for MIC: A. hydrophila, 10 h cultivation at 37° C.; for MIC against A. hydrophila / MIC (μg/mL) A. hydrophila: 96-well plate, 37° C., 10 h
Method in brief: as §1

Citrobacter diversus = test: MIC against Gram-negative bacteria: Citrobacter diversus; details: for MIC: C. diversus, 10 h cultivation at 37° C.; for MIC against C. diversus / MIC (μg/mL) C. diversus: 96-well plate, 37° C., 10 h
Method in brief: as §1

Moraxella catarrhalis = test: MIC against Gram-negative bacteria: Moraxella catarrhalis; details: for MIC: M. catarrhalis, 10 h cultivation at 37° C.; for MIC against M. catarrhalis / MIC (μg/mL) M. catarrhalis: 96-well plate, 37° C., 10 h
Method in brief: as §1

Proteus mirabilis = test: MIC against Gram-negative bacteria: Proteus mirabilis; details: for MIC: P. mirabilis, 10 h cultivation at 37° C.; for MIC against P. mirabilis / MIC (μg/mL) P. mirabilis: 96-well plate, 37° C., 10 h
Method in brief: as §1

Proteus vulgaris = test: MIC against Gram-negative bacteria: Proteus vulgaris; details: for MIC: P. vulgaris, 10 h cultivation at 37° C.; for MIC against P. vulgaris / MIC (μg/mL) P. vulgaris: 96-well plate, 37° C., 10 h
Method in brief: as §1

Serratia marcescens = test: MIC against Gram-negative bacteria: Serratia marcescens; details: for MIC: S. marcescens, 10 h cultivation at 37° C.; for MIC against S. marcescens / MIC (μg/mL) S. marcescens: 96-well plate, 37° C., 10 h
Method in brief: as §1

[1] = Pseudomonas aeruginosa, 5×10^5 CFU/mL
[2] = Klebsiella pneumonia, 5×10^5 CFU/mL
[3] = Enterobacter cloacae, 5×10^5 CFU/mL
[4] = Aeromonas hydrophila, 5×10^5 CFU/mL
[5] = Citrobacter diversus, 5×10^5 CFU/mL
[6] = Moraxella catarrhalis, 5×10^5 CFU/mL
[7] = Proteus mirabilis, 5×10^5 CFU/mL
[8] = Proteus vulgaris, 5×10^5 CFU/mL
[9] = Serratia marcescens, 5×10^5 CFU/mL

PRT419 (DIDECALPTGGHICSYRCINIPGSFQCSCPSSGYRLAPNGRNCQ; listed as Homo sapiens)
MIC (E. coli DH5α): 25 µg/mL
MIC (E. coli BL21; E. coli BL21, 5×10^5 CFU/mL): 12.5 µg/mL
MIC (Pseudomonas aeruginosa; 5×10^5 CFU/mL): 25 µg/mL
MIC (Klebsiella pneumonia; 5×10^5 CFU/mL): 50 µg/mL
MIC (Enterobacter cloacae; 5×10^5 CFU/mL): 25 µg/mL
MIC (Aeromonas hydrophila; 5×10^5 CFU/mL): 12.5 µg/mL
MIC (Citrobacter diversus; 5×10^5 CFU/mL): 25 µg/mL
MIC (Moraxella catarrhalis; 5×10^5 CFU/mL): 50 µg/mL
MIC (Proteus mirabilis; 5×10^5 CFU/mL): 25 µg/mL
MIC (Proteus vulgaris; 5×10^5 CFU/mL): 12.5 µg/mL
MIC (Serratia marcescens; 5×10^5 CFU/mL): 25 µg/mL

PRT1015 (DVNECFQDPGPCPKGTSCHNTLGSFQCLCPVGQEGPRCE; listed as Homo sapiens)
MIC (E. coli DH5α): 12.5 µg/mL
MIC (E. coli BL21; E. coli BL21): 50 µg/mL
MIC (Pseudomonas aeruginosa): 12.5 µg/mL
MIC (Klebsiella pneumonia): 50 µg/mL
MIC (Enterobacter cloacae): 12.5 µg/mL
MIC (Aeromonas hydrophila): 25 µg/mL
MIC (Citrobacter diversus): 50 µg/mL
MIC (Moraxella catarrhalis): 12.5 µg/mL
MIC (Proteus mirabilis): 50 µg/mL
MIC (Proteus vulgaris): 12.5 µg/mL
MIC (Serratia marcescens): 50 µg/mL

PRT586 (CPCPEGPGSQRHFATSCHQDEYSQQIVCHCRAGYTGLRCEACAPGHFGDPSRPGGRCQL; listed as Homo sapiens)
MIC (E. coli DH5α): 12.5 µg/mL
MIC against E. coli BL21 (E. coli BL21; 5×10^5 CFU/mL): 50 µg/mL
MIC against P. aeruginosa (Pseudomonas aeruginosa; 5×10^5 CFU/mL): 12.5 µg/mL
MIC against K. pneumonia (Klebsiella pneumonia; 5×10^5 CFU/mL): 50 µg/mL
MIC against E. cloacae (Enterobacter cloacae; 5×10^5 CFU/mL): 12.5 µg/mL
MIC against A. hydrophila (Aeromonas hydrophila; 5×10^5 CFU/mL): 50 µg/mL
MIC against C. diversus (Citrobacter diversus; 5×10^5 CFU/mL): 12.5 µg/mL
MIC against M. catarrhalis (Moraxella catarrhalis; 5×10^5 CFU/mL): 25 µg/mL
MIC against P. mirabilis (Proteus mirabilis; 5×10^5 CFU/mL): 50 µg/mL
MIC against P. vulgaris (Proteus vulgaris; 5×10^5 CFU/mL): 25 µg/mL
MIC against S. marcescens (Serratia marcescens; 5×10^5 CFU/mL): 12.5 µg/mL

PRT1197 (DIDECAAKMHYCHANTVCVNLPGLYRCDCVPGYIRVDDFSCT; listed as Homo sapiens)
MIC (E. coli DH5α): 25 µg/mL
MIC against E. coli BL21 (E. coli BL21; E. coli BL21, 5×10^5 CFU/mL): 12.5 µg/mL
MIC against P. aeruginosa (Pseudomonas aeruginosa; [1]): 25 µg/mL
MIC against K. pneumonia (Klebsiella pneumonia; [2]): 50 µg/mL
MIC against E. cloacae (Enterobacter cloacae; [3]): 12.5 µg/mL
MIC against A. hydrophila (Aeromonas hydrophila; [4]): 50 µg/mL
MIC against C. diversus (Citrobacter diversus; [5]): 25 µg/mL
MIC against M. catarrhalis (Moraxella catarrhalis; [6]): 12.5 µg/mL
MIC against P. mirabilis (Proteus mirabilis; [7]): 25 µg/mL
MIC against P. vulgaris (Proteus vulgaris; [8]): 50 µg/mL
MIC against S. marcescens (Serratia marcescens; [9]): 25 µg/mL

PRT17 (AGHPCTRASGHPCLNGASCVPREAAYVCLCPGGFSGPHCE; listed as Homo sapiens)
MIC (E. coli DH5α): 12.5 µg/mL
MIC (μg/mL) E. coli BL21 (E. coli BL21; E. coli BL21, 5×10^5 CFU/mL): 12.5 µg/mL
MIC (μg/mL) P. aeruginosa (Pseudomonas aeruginosa; [1]): 12.5 µg/mL
MIC (μg/mL) K. pneumonia (Klebsiella pneumonia; [2]): 25 µg/mL
MIC (μg/mL) E. cloacae (Enterobacter cloacae; [3]): 50 µg/mL
MIC (μg/mL) A. hydrophila (Aeromonas hydrophila; [4]): 12.5 µg/mL
MIC (μg/mL) C. diversus (Citrobacter diversus; [5]): 50 µg/mL
MIC (μg/mL) M. catarrhalis (Moraxella catarrhalis; [6]): 25 µg/mL
MIC (μg/mL) P. mirabilis (Proteus mirabilis; [7]): 12.5 µg/mL
MIC (μg/mL) P. vulgaris (Proteus vulgaris; [8]): 50 µg/mL
MIC (μg/mL) S. marcescens (Serratia marcescens; [9]): 25 µg/mL

PRT142 (PCPGRYLRAGKCAELPNCLDDLGGFACECATGFELGKDGRSCV; listed as Homo sapiens)
MIC (E. coli DH5α): 12.5 µg/mL
MIC (μg/mL) E. coli BL21 (E. coli BL21; E. coli BL21, 5×10^5 CFU/mL): 12.5 µg/mL
MIC (μg/mL) P. aeruginosa (Pseudomonas aeruginosa; [1]): 25 µg/mL
MIC (μg/mL) K. pneumonia (Klebsiella pneumonia; [2]): 12.5 µg/mL
MIC (μg/mL) E. cloacae (Enterobacter cloacae; [3]): 25 µg/mL
MIC (μg/mL) A. hydrophila (Aeromonas hydrophila; [4]): 25 µg/mL
MIC (μg/mL) C. diversus (Citrobacter diversus; [5]): 12.5 µg/mL
MIC (μg/mL) M. catarrhalis (Moraxella catarrhalis; [6]): 25 µg/mL
MIC (μg/mL) P. mirabilis (Proteus mirabilis; [7]): 12.5 µg/mL
MIC (μg/mL) P. vulgaris (Proteus vulgaris; [8]): 25 µg/mL
MIC (μg/mL) S. marcescens (Serratia marcescens; [9]): 12.5 µg/mL
